Reference: patent US20110224210A1, “NOVEL BIS-AMIDES AS ANTI-MALARIAL AGENTS” (priority 2008, published 2011)

Tested on: P. falciparum K1 (strain resistant to chloroquine and pyrimethamine), erythrocytic stages
Assay: Plasmodium falciparum in vitro assay, [3H] hypoxanthine incorporation
Format: cell-based
Conditions: Plasmodium falciparum, K1, P. falciparum strain K1; [3H] hypoxanthine incorporation; read-out: IC50 (nM) on K1
Summary of the method: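 K1 strain parasites grown in human red cells, 2.5% haematocrit, 0.3% parasitaemia, 37 °C, 4% CO2/3% O2; compounds in seven serial doubling dilutions.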

Row | SMILES | IC50
1 | O=C(NCCN1CCCCCC1)[C@H](Cc1ccccc1)N(Cc1ccc(-c2ccccn2)cc1)C(=O)C=Cc1ccc(C(F)(F)F)cc1 [Example 154] | 420 nM
2 | COCCN(C)C(=O)[C@H](Cc1ccccc1)N(Cc1ccc(N2CCN(C(C)=O)CC2)cc1)C(=O)C=Cc1ccn(C)n1 [Example 103, (S)-N-[4-(4-Acetyl-piperazin-1-yl)-benzyl]-N-{1-[(2-methoxy-ethyl)-methyl-carbamoyl]-2-phenyl-ethyl}-3-(1-methyl-1H-pyrazol-3-yl)-acrylamide] | 438 nM
3 | COCCN(C)C(=O)[C@H](Cc1ccccc1)N(Cc1ccc(N2CCOCC2)cc1)C(=O)C=Cc1ccc(C)cn1 [Example 68, (S)-N-{1-[(2-Methoxy-ethyl)-methyl-carbamoyl]-2-phenyl-ethyl}-3-(5-methyl-pyridin-2-yl)-N-(4-morpholin-4-yl-benzyl)-acrylamide] | 156 nM
4 | COCCN(C)C(=O)[C@H](Cc1ccccc1)N(Cc1ccc(-c2ccccn2)cc1)C(=O)C=Cc1cnn(C)c1C [Example 90, (S)-3-(1,5-Dimethyl-1H-pyrazol-4-yl)-N-{1-[(2-methoxy-ethyl)-methyl-carbamoyl]-2-phenyl-ethyl}-N-(4-pyridin-2-yl-benzyl)-acrylamide] | 43 nM
5 | COCCN(C)C(=O)[C@H](Cc1ccccc1)N(Cc1ccc(-c2ccncc2)cc1)C(=O)C=Cc1csc(C)n1 [Example 94, (S)-N-{1-[(2-Methoxy-ethyl)-methyl-carbamoyl]-2-phenyl-ethyl}-3-(2-methyl-thiazol-4-yl)-N-(4-pyridin-4-yl-benzyl)-acrylamide] | 15 nM
6 | CN(C)[C@@H]1CCN(C(=O)[C@H](Cc2ccccc2)N(Cc2ccc(-c3ccccn3)cc2)C(=O)C=Cc2ccc(C(F)(F)F)nc2)C1 [Example 55, N-[(S)-1-Benzyl-2-((R)-3-dimethylamino-pyrrolidin-1-yl)-2-oxo-ethyl]-N-(4-pyridin-2-yl-benzyl)-3-(6-trifluoromethyl-pyridin-3-yl)-acrylamide] | 65 nM
7 | Cc1ccc(C=CC(=O)N(Cc2ccc(N3CCOCC3)nc2)[C@@H](Cc2ccccc2)C(=O)N2CCC(Cc3ccccc3)CC2)cc1 [Example 146, (S)-N-[1-Benzyl-2-(4-benzyl-piperidin-1-yl)-2-oxo-ethyl]-N-(6-morpholin-4-yl-pyridin-3-ylmethyl)-3-p-tolyl-acrylamide] | 9 nM
8 | COCCN(C)C(=O)[C@H](Cc1ccccc1)N(Cc1ccc(-c2ccccn2)cc1)C(=O)C=Cc1ccn(C)n1 [Example 73, (S)-N-{1-[(2-Methoxy-ethyl)-methyl-carbamoyl]-2-phenyl-ethyl}-3-(1-methyl-1H-pyrazol-3-yl)-N-(4-pyridin-2-yl-benzyl)-acrylamide] | 156 nM
9 | Cc1nc(C=CC(=O)N(Cc2ccc(-c3ccncc3)cc2)[C@@H](Cc2ccccc2)C(=O)N2CCC(N(C)C)CC2)c(C)o1 [Example 25, (S)-N-[1-Benzyl-2-(4-dimethylamino-piperidin-1-yl)-2-oxo-ethyl]-3-(2,5-dimethyl-oxazol-4-yl)-N-(4-pyridin-4-yl-benzyl)-acrylamide] | 90 nM
10 | COCCN(C)C(=O)[C@H](Cc1ccccc1)N(Cc1ccc(-c2ccccn2)cc1)C(=O)C=Cc1cnc(C(F)(F)F)nc1 [Example 88, (S)-N-{1-[(2-Methoxy-ethyl)-methyl-carbamoyl]-2-phenyl-ethyl}-N-(4-pyridin-2-yl-benzyl)-3-(2-trifluoromethyl-pyrimidin-5-yl)-acrylamide] | 45 nM
11 | CC(=O)N1CCN(c2ccc(CN(C(=O)C=Cc3ccc(C(F)(F)F)cn3)[C@@H](Cc3ccccc3)C(=O)N3CCC(N(C)C)CC3)cc2)CC1 [Example 35, (S)-N-[4-(4-Acetyl-piperazin-1-yl)-benzyl]-N-[1-benzyl-2-(4-dimethylamino-piperidin-1-yl)-2-oxo-ethyl]-3-(5-trifluoromethyl-pyridin-2-yl)-acrylamide] | 317 nM
12 | CN(C)C1CCN(C(=O)[C@H](Cc2ccccc2)N(Cc2ccc(-c3ccccn3)cc2)C(=O)C=Cc2ccc(C(F)(F)F)nc2)CC1 [Example 7, (S)-N-[1-Benzyl-2-(4-dimethylamino-piperidin-1-yl)-2-oxo-ethyl]-N-(4-pyridin-2-yl-benzyl)-3-(6-trifluoromethyl-pyridin-3-yl)-acrylamide] | 14 nM
13 | Cc1cc(C=CC(=O)N(Cc2ccc(-c3ccccn3)cc2)[C@@H](Cc2ccccc2)C(=O)N2CCC(N(C)C)CC2)n(C)n1 [Example 8, (S)-N-[1-Benzyl-2-(4-dimethylamino-piperidin-1-yl)-2-oxo-ethyl]-3-(2,5-dimethyl-2H-pyrazol-3-yl)-N-(4-pyridin-2-yl-benzyl)-acrylamide] | 381 nM
14 | CC(C)N(CCNC(=O)[C@H](Cc1ccccc1)N(Cc1ccc(-c2ccccn2)cc1)C(=O)C=Cc1ccc(C(F)(F)F)cc1)C(C)C [Example 155] | 327 nM
15 | COCCN(C)C(=O)[C@H](Cc1ccccc1)N(Cc1ccc(-c2cccnc2)cc1)C(=O)C=Cc1ccc(Cl)nc1 [Example 134, (S)-3-(6-Chloro-pyridin-3-yl)-N-{1-[(2-methoxy-ethyl)-methyl-carbamoyl]-2-phenyl-ethyl}-N-(4-pyridin-3-yl-benzyl)-acrylamide] | 33 nM
16 | COc1ccc(C=CC(=O)N(Cc2ccc(N3CCOCC3)nc2)[C@@H](Cc2ccccc2)C(=O)N2CCC(Cc3ccccc3)CC2)cc1 [Example 145, (S)-N-[1-Benzyl-2-(4-benzyl-piperidin-1-yl)-2-oxo-ethyl]-3-(4-methoxy-phenyl)-N-(6-morpholin-4-yl-pyridin-3-ylmethyl)-acrylamide] | 5 nM
17 | CN(C)[C@H]1CCN(C(=O)[C@H](Cc2ccccc2)N(Cc2ccc(-c3ccccn3)cc2)C(=O)C=Cc2ccc(C(F)(F)F)nc2)C1 [Example 56, N-[(S)-1-Benzyl-2-((S)-3-dimethylamino-pyrrolidin-1-yl)-2-oxo-ethyl]-N-(4-pyridin-2-yl-benzyl)-3-(6-trifluoromethyl-pyridin-3-yl)-acrylamide] | 58 nM

Further lines, results first:

Row | IC50 | SMILES
18 | 312 nM | COCCN(C)C(=O)C(Cc1ccon1)N(Cc1ccc(-c2ccncc2)cc1)C(=O)C=Cc1ccc(C(F)(F)F)cc1 (racemic) [Example 169]
19 | 64 nM | CC(=O)N1CCN(c2ccc(CN(C(=O)C=Cc3ccc(C(F)(F)F)cc3)[C@@H](Cc3ccccc3)C(=O)N(C)CCN(C)Cc3ccc(OCCCN(C)C)cc3)cc2)CC1 [Example 246, (S)-N-[4-(4-Acetyl-piperazin-1-yl)-benzyl]-N-{1-[(2-{[4-(3-dimethylamino-propoxy)-benzyl]-methyl-amino}-ethyl)-methyl-carbamoyl]-2-phenyl-ethyl}-3-(4-trifluoromethyl-phenyl)-acrylamide]
20 | 93 nM | COCCN(C)C(=O)[C@H](Cc1ccccc1)N(Cc1ccccc1)C(=O)C=Cc1ccc(C)cc1 [Example 160, (S)-N-Benzyl-N-{1-[(2-methoxy-ethyl)-methyl-carbamoyl]-2-phenyl-ethyl}-3-p-tolyl-acrylamide]
21 | 31 nM | CC(=O)N1CCN(c2ccc(CN(C(=O)C=Cc3ccc(C(F)(F)F)nc3)[C@@H](Cc3ccccc3)C(=O)N(C)CCOCc3cc(C)on3)cc2)CC1 [Example 209, (S)-N-[4-(4-Acetyl-piperazin-1-yl)-benzyl]-N-(1-{methyl-[2-(5-methyl-isoxazol-3-ylmethoxy)-ethyl]-carbamoyl}-2-phenyl-ethyl)-3-(6-trifluoromethyl-pyridin-3-yl)-acrylamide]
22 | 25 nM | CN(CCN(C)C(=O)[C@H](Cc1ccccc1)N(Cc1ccc(-c2ccccn2)cc1)C(=O)C=Cc1ccc(C(F)(F)F)cc1)Cc1ccco1 [Example 223, (S)-N-(1-{[2-(Furan-2-ylmethyl-methyl-amino)-ethyl]-methyl-carbamoyl}-2-phenyl-ethyl)-N-(4-pyridin-2-yl-benzyl)-3-(4-trifluoromethyl-phenyl)-acrylamide]
23 | 40 nM | C=CCOCCN(C)C(=O)[C@H](Cc1ccccc1)N(Cc1ccc(N2CCN(C(C)=O)CC2)cc1)C(=O)C=Cc1ccc(C(F)(F)F)nc1 [Example 218, (S)-N-[4-(4-Acetyl-piperazin-1-yl)-benzyl]-N-{1-[(2-allyloxy-ethyl)-methyl-carbamoyl]-2-phenyl-ethyl}-3-(6-trifluoromethyl-pyridin-3-yl)-acrylamide]
24 | 14 nM | CN(CCOCc1ccc2c(c1)nnn2C)C(=O)[C@H](Cc1ccccc1)N(Cc1ccc(N2CCOCC2)cc1)C(=O)C=Cc1ccc(C(F)(F)F)cc1 [Example 202, (S)-N-(1-{Methyl-[2-(1-methyl-1H-benzotriazol-5-ylmethoxy)-ethyl]-carbamoyl}-2-phenyl-ethyl)-N-(4-morpholin-4-yl-benzyl)-3-(4-trifluoromethyl-phenyl)-acrylamide]
25 | 96 nM | COCCN(C)C(=O)C(Cc1cnn(C)c1)N(Cc1ccc(-c2ccncc2)cc1)C(=O)C=Cc1ccc(C(F)(F)F)cc1 (racemic) [Example 166]
26 | 59 nM | CN(Cc1ccc(NC(=O)c2ccccc2)cc1)C(=O)[C@H](Cc1ccccc1)N(Cc1ccc(N2CCOCC2)cc1)C(=O)C=Cc1ccc(C(F)(F)F)nc1 [Example 275, (S)-N-(4-{[Methyl-(2-{(4-morpholin-4-yl-benzyl)-[3-(6-trifluoromethyl-pyridin-3-yl)-acryloyl]-amino}-3-phenyl-propionyl)-amino]-methyl}-phenyl)-benzamide]
27 | 9 nM | CN(CCN(C)C(=O)[C@H](Cc1ccccc1)N(Cc1ccc(-c2ccccn2)cc1)C(=O)C=Cc1ccc(C(F)(F)F)cc1)Cc1ccc(CO)o1 [Example 228, (S)-N-[1-({2-[(5-Hydroxymethyl-furan-2-ylmethyl)-methyl-amino]-ethyl}-methyl-carbamoyl)-2-phenyl-ethyl]-N-(4-pyridin-2-yl-benzyl)-3-(4-trifluoromethyl-phenyl)-acrylamide]
28 | 65 nM | CN(CCOCc1cccc(OC(F)(F)F)c1)C(=O)[C@H](Cc1ccccc1)N(Cc1ccc(N2CCOCC2)cc1)C(=O)C=Cc1ccc(C(F)(F)F)cc1 [Example 198, (S)-N-(1-{Methyl-[2-(3-trifluoromethoxy-benzyloxy)-ethyl]-carbamoyl}-2-phenyl-ethyl)-N-(4-morpholin-4-yl-benzyl)-3-(4-trifluoromethyl-phenyl)-acrylamide]
